In US6737241B2, “Methods for screening for transdominant intracellular effector peptides and RNA molecules” (Rigel Pharmaceuticals, Inc., priority 1996, dated 2004):

Assays:
NIH 3T3 cells = experiment: Staurosporine induction of apoptosis (ethidium bromide/acridine orange double staining); type: cell-based; conditions: 1 uM in serum-free media, within 24 hours
Description: D. Staurosporine selection. Staurosporine, an alkaloid from Streptomyces sp., is a potent, broad spectrum inhibitor of protein kinases which binds the ATP site. Addition of 1 uM staurosporine in serum-free media to NIH 3T3 cells induced >99% apoptosis within 24 hours, as determined by ethidium bromide/acridine orange double staining as described for the Fas selection.

3T3 cells [1] = experiment: Propidium iodide staining of fixed cells to assay for apoptosis (TNF/CXH); type: cell-based; conditions: expressed in 3T3 cells
Description: Propidium Iodide staining of fixed cells to assay for apoptosis: (Sherwood and Schimke, Methods in Cell Biology, 46:77-87, 1995) 3T3 cells transiently infected with MFGLacZ, Bcl2, or CPP32 were plated and treated with TNF/CXH as described above, and harvested and washed as above. Cells were then resuspended in 70% ethanol in PBS at 4° C. and kept at 4° C. overnight. When ready to FACS, cells were stained with propidium iodide as follows. Cells were spun at 14,000 RPM for 10 seconds and washed once with PBS/BSA. Cells were then resuspended in […] staining solution (PBS with 50 mg/ml RNase A (DNase-free) with 10 mg/ml propidium iodide) and incubated at 37° C for at least 1 hour. Cells were then pelleted and resuspended in PBS/BSA solution containing 10 mg/ml propidium iodide and analyzed by FACS scanning.

CPP32 = target: T1, CPP32 (Mus musculus, UniProt P70677); experiment: Enzymatic assay of CPP32 activity (DEVD-pNA cleavage) in extracts of TNF/CXH-stimulated 3T3 cells; type: biochemical; conditions: cell extracts, 30 min to 4 hours after TNF/CXH; control WIN cells rise at 2 hours
T1 construct: endogenous in cells; host or cells: 3T3 cells (lysate after TNF/cycloheximide stimulation)
T1 sequence (P70677 29-175 limits assumed): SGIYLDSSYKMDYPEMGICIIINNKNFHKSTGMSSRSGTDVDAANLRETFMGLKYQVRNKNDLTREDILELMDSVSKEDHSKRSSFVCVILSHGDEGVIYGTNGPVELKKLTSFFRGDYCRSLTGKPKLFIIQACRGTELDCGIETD
T1 sequence (P70677 176-277 limits assumed): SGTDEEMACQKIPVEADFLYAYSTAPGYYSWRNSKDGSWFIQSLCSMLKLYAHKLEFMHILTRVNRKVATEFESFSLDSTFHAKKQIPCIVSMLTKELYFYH
Description: Enzymatic Assay of CPP32 activity: CPP32 Assay Kit: Clontech CPP32 Colorimetric Assay Kit (Cat. No. K2027-2): 3T3 cells were infected with the vectors described in Part I, section C, and selected in G418 media prior to assay. 6-well plates of 3T3 cells at near confluence were stimulated with TNF/CXH as described above and harvested at 30 min, 1, 2 and 4 hours after stimulation as follows. Cells were trypsinized and collected as described above. After transfering to an eppendorf tube, cells were spun and resuspended in […] chilled Cell Lysis Buffer. Cells were incubated for 10 minutes on ice, then […] of 2× Reaction Buffer containing DTT was added to each tube. 5 ml of the calorimetric conjugated substrate (DEVD-paranitroanilide, 50 mM final concentration) was added to each tube and incubated at 37° C. for 30 minutes. Samples were transferred to a 96 well plate and read on a spectrophotometer at O.D. of 405. […] By 4 hours, cells have begun to die and the activity is decreased. […] In the case of BCL2, it should be due to inhibition of apoptosis upstream of the enzyme. With CPP32 inhibitor peptide, it should be due to direct inhibition of enzymatic activity. These in vitro results are consistent with the results seen in cell death assays described above.

3T3 cells [2] = experiment: Apotag / TUNEL assay of apoptosis induced by hTNFa and cycloheximide; type: cell-based; conditions: expressed in 3T3 cells from an MSCV retroviral promoter; hTNFa 50 ng/ml + cycloheximide 6 hours, harvested at 24 hours
Description: Apotag assay: TUNEL (TdT-mediated dUTP-fluorescein nick end labeling) Boehringer Mannheim kit, catalog no. 168795
3T3 cells transiently infected with either MFGLacZ, BCL2, or […] plasmids were grown to 50% confluence at the time of induction with hTNFa (50 ng/ml media) and cycloheximide ([…] media) for 6 hours. Cells were washed at 6 hours and harvested at 24 hours after induction. Cells were harvested by pooling all media from cells (in order to collect any apoptotic, floating cells) with the washings and trypsinized cells. The cells were spun and washed with PBS containing 1% BSA, transferred to an eppendorf tube and the wash repeated once.
Cells were fixed in 4% paraformaldehyde at room temperature for 30 minutes, washed in PBS/BSA, then resuspended in permeabilisation buffer for 2 minutes on ice. After permeabilisation, cells were washed twice in PBS/BSA and incubated at 37° C. for 1 hour with labeling buffer containing fluoresceinated dUTP, unlabeled nucleotide mixture and terminal deoxynucleotidyl transferase (TdT). Cells were washed twice with PBS/BSA, resuspended in PBS/BSA and transferred to a FACS tube for analysis. Samples were also visualized under the fluorescence microscope.

PKCa = PKCa localization by immunohistochemistry after PMA stimulation; type: cell-based, Murine
Jurkat EcoR cells = experiment: IgM anti-Fas (CH-11) selection of retrovirus-transduced Jurkat cells; conditions: peptide expressed in cells with a retrovirus
Description: A sterile Acrodisc 0.45 micron syringe filter (Gelman Sciences) was attached to the end of a 10 ml sterile syringe and the injection stopper sterilely removed from the syringe barrel. At 48 hours post-transfection, the virus supernatant was removed from the Phoenix cells and added to the syringe barrel. The stopper was replaced and the virus supernatant was ejected dropwise into a clean, sterile conical tube. […] Polybrene was added to each viral supernatant (Sigma; 2.5 mg/ml in ddH20=500×; store at −20° C.) to a final concentration of 5 mg/ml. 4.5×10^6 Jurkat EcoR cells (Jurkat cells stably expressing the ecotropic retrovirus receptor) were pelleted for 1400 rpm for five min and resuspended in 9 mls of the OL-2 library virus supernatant. The cells were distributed in aliquots of 1 ml, or 5×10^5 cells, into the wells of a 24 well plate. 1.5×10^6 Jurkat EcoR cells were similarly treated with 3 mls each of the lacZ viral supernatant and the OL-1 viral supernatant. Each cell plate was wrapped in parafilm, placed in a microplate carrier (DuPont) and centrifuged at 2500 rpm for 90 min at 32° C. in a DuPont/Sorvall RT 6000B table top centrifuge. After centrifugation, the cells were observed under a microscope. […] The parafilm was removed from the plates, which were placed at 32° C. […]

cells = experiment: Staurosporin induced apoptosis in cells expressing the peptide with a retrovirus; type: cell-based; conditions: peptide expressed in cells with a retrovirus

## CN[C@@H]1C[C@H]2O[C@@](C)([C@@H]1OC)n1c3ccccc3c3c4c(c5c6ccccc6n2c5c31)C(=O)NC4 [staurosporine, Staurosporine]
NIH 3T3 cells
  apoptosis: > 99%

## Bcl2: Bcl2 protein expressed from a retroviral vector; known inhibitor of apoptosis, positive control
3T3 cells [1]
  inhibition of apoptosis induced by tumor necrosis factor and cycloheximide (PI staining): able to inhibit apoptosis
CPP32
  CPP32 enzyme activity (cleavage of DEVD-pNA): this rise in activity is not seen
3T3 cells [2]
  inhibition of apoptosis induced by tumor necrosis factor and cycloheximide (TUNEL): able to inhibit apoptosis

## GKQKTKTIKGPP
PKCa
  translocation of PKCa to the nucleus: able to specifically inhibit translocation of activated PKCa

## MGKRKGDEVDGVGPP [OL-1, peptide encoded by oligonucleotide OL-1, positive control in Fas selection]
Jurkat EcoR cells
  inhibition of Fas-mediated apoptosis: inhibit
cells
  inhibition of Staurosporin induced apoptosis: inhibit
